Data published in the NIST ThermoML archive (doi:10.1016/j.jct.2018.02.014).

Experiments:
[1] = 101.33 kPa, Liquid; for viscosity: Falling or rolling sphere viscometry; for mass density: Vibrating tube method
[2] = activity coefficient (dimensionless); of the first substance listed, at infinite dilution; xn = mol fraction of the nth substance listed; conditions: 101.33 kPa, Liquid, Chromatography, x1 = 0

CC[N+]1(C)CCOCC1.N#CN=C=[N-] [N-ethyl-N-methylmorpholinium dicyanamide]
[1]
Conditions	mass density [kg/m3]	viscosity [mPa·s]
298.15 K	1123.2	176
303.15 K	1120.2	–
308.15 K	1117.2	106
313.15 K	1114.2	–
318.15 K	1111.3	68.3
323.15 K	1108.4	–
328.15 K	1105.4	47.4
333.15 K	1102.5	–
338.15 K	1099.7	33.7
343.15 K	1096.8	–
348.15 K	1093.9	24.8
353.15 K	1091.1	–
358.15 K	1088.3	19.2
363.15 K	1085.5	–
368.15 K	1082.7	15.6

O [water] + CC[N+]1(C)CCOCC1.N#CN=C=[N-]
[2]
Conditions	activity coefficient
318.15 K	0.324
328.15 K	0.337
338.15 K	0.35
348.15 K	0.364
358.15 K	0.376
368.15 K	0.39
